Reference: ChEMBL document CHEMBL2157925, “Design, synthesis, and bioevaluation of benzamides: novel acetylcholinesterase inhibitors with multi-functions on butylcholinesterase, Aβ aggregation, and β-secretase” (Bioorg Med Chem, 2012)

Legend:
Acetylcholinesterase = Acetylcholinesterase (Homo sapiens, UniProt P22303)
Description: Inhibition of human recombinant AChE using acetylthiocholine as substrate

Cholinesterase = Cholinesterase (Homo sapiens, UniProt P06276)
Description: Inhibition of human recombinant BChE using acetylthiocholine as substrate

Beta-secretase 1 = Beta-secretase 1 (Homo sapiens, UniProt P56817)
Chain of Beta-secretase 1 (P56817 whole entry): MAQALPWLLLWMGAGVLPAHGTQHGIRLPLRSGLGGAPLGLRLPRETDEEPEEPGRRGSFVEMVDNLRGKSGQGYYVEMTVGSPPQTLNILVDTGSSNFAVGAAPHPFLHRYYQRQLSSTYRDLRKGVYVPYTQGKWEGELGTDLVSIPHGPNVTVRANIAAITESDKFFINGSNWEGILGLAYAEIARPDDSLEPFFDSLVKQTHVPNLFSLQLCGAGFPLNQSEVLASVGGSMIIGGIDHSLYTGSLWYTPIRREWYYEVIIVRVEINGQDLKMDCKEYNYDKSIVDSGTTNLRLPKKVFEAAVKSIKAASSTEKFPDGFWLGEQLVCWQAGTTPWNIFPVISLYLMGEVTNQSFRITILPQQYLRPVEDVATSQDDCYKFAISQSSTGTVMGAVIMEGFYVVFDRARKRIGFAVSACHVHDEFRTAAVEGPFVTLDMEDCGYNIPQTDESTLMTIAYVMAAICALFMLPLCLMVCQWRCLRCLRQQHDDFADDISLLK

Chain of Cholinesterase (P06276 whole entry): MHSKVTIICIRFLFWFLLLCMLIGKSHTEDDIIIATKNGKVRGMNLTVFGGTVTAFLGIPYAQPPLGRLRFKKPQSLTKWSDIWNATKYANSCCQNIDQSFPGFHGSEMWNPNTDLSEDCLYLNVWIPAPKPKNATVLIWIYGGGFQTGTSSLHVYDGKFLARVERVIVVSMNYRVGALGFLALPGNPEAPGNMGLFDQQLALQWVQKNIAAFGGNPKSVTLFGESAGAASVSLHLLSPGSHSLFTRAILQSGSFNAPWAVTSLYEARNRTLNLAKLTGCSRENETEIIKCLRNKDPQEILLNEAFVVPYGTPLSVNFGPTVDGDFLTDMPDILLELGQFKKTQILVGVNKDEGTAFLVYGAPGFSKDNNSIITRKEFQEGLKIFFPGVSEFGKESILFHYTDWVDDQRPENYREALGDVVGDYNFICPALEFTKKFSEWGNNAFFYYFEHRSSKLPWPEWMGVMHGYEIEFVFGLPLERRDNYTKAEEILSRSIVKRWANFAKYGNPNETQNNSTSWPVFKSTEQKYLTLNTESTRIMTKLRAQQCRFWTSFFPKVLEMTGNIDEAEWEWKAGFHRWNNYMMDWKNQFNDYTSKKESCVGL
Chain of Acetylcholinesterase (P22303 whole entry): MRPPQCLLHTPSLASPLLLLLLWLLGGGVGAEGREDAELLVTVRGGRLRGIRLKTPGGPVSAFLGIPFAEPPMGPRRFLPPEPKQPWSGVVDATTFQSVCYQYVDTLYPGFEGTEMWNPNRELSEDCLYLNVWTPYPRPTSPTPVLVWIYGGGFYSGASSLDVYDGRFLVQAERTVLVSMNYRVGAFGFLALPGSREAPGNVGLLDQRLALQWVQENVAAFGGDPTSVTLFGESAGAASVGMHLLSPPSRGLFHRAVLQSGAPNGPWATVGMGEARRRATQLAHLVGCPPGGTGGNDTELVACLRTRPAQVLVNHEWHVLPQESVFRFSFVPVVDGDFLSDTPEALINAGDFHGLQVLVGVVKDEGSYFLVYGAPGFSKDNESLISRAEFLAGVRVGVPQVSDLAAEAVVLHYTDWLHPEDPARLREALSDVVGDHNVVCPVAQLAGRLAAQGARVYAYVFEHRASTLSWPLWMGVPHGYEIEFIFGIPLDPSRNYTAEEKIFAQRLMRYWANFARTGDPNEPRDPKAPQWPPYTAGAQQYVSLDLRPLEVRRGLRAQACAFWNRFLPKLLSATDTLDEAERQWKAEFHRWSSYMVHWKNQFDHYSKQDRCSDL

Q: Which Ki (Acetylcholinesterase) does the source give for O=C(NCCc1c[nH]c2ccccc12)c1ccc(OCCCCn2c3ccccc3c3ccccc32)cc1 here?
A: The Ki was 1440 nM.

Q: With O=C(NCCc1c[nH]c2ccccc12)c1ccc(OCCCCn2ccc3ccccc32)cc1 as the molecule, how does the Ki (Acetylcholinesterase) read?
A: The Ki was greater than 10000 nM.

Q: Which Ki (Acetylcholinesterase) does the source give for O=C(NCCc1c[nH]c2ccccc12)c1ccc(OCCCCOc2cccc3[nH]c4ccccc4c23)cc1 here?
A: The Ki was greater than 10000 nM.

Q: O=C(NCCc1c[nH]c2ccccc12)c1ccc(OCCCCOc2cccc(C(=O)c3ccccc3)c2)cc1 was tested. Which Ki (Acetylcholinesterase) did it give?
A: Its Ki is greater than 10000 nM.

Q: How did the Ki (Acetylcholinesterase) turn out when O=C(NCCc1c[nH]c2ccccc12)c1ccc(OCCCCOc2ccc(C(=O)c3ccccc3)cc2)cc1 was run?
A: The Ki was greater than 10000 nM.

Q: For O=C(NCCc1c[nH]c2ccccc12)c1ccc(OCCCCOc2ccc3c(c2)C(=O)c2ccccc2-3)cc1, which Ki (Acetylcholinesterase) is on record?
A: The Ki was greater than 10000 nM.

Q: How did the Ki (Acetylcholinesterase) turn out when CN(C)c1cc[n+](CCCCOc2ccc(C(=O)NCCc3c[nH]c4ccccc34)cc2)cc1 was run?
A: Its Ki is 198 nM.

Q: And the Ki (Cholinesterase)?
A: The Ki was 2360 nM.

Q: With O=C(NCCc1c[nH]c2ccccc12)c1ccc(OCCCC[n+]2cccc3ccccc32)cc1 as the molecule, how does the Ki (Acetylcholinesterase) read?
A: Its Ki is 124 nM.

Q: And the Ki (Cholinesterase)?
A: Its Ki is 97 nM.

Q: Which Ki (Acetylcholinesterase) does the source give for CC(=O)c1ccccc1NC(=O)c1ccc(OCCCC[n+]2cccc3ccccc32)cc1 here?
A: Its Ki is 53 nM.

Q: And the Ki (Cholinesterase)?
A: Its Ki is 166 nM.

Q: How did the Ki (Acetylcholinesterase) turn out when CC(=O)c1ccccc1NC(=O)c1ccc(OCCCC[n+]2ccc3ccccc3c2)cc1 was run?
A: The Ki was 45.8 nM.

Q: And the Ki (Cholinesterase)?
A: The Ki was 56 nM.

Q: How did the Ki (Acetylcholinesterase) turn out when CC(=O)c1ccccc1NC(=O)c1ccc(OCCCCC[n+]2ccc3ccccc3c2)cc1 was run?
A: Its Ki is 44.7 nM.

Q: And the Ki (Cholinesterase)?
A: Its Ki is 82 nM.

Q: And the IC50 (Beta-secretase 1)?
A: The IC50 was greater than 100000 nM.

Q: CC(=O)c1ccccc1NC(=O)c1ccc(OCCCCCC[n+]2ccc3ccccc3c2)cc1 was tested. Which Ki (Acetylcholinesterase) did it give?
A: The Ki was 9.4 nM.

Q: And the Ki (Cholinesterase)?
A: The Ki was 99 nM.

Q: What about the IC50 (Beta-secretase 1) of the same molecule?
A: Its IC50 is greater than 100000 nM.

Q: How did the Ki (Acetylcholinesterase) turn out when CC(=O)c1ccccc1NC(=O)c1ccc(OCCCCC[n+]2cccc3ccccc32)cc1 was run?
A: The Ki was 6.47 nM.

Q: And the Ki (Cholinesterase)?
A: The Ki was 55 nM.

Q: And the IC50 (Beta-secretase 1)?
A: Its IC50 is 85000 nM.

Q: Which Ki (Acetylcholinesterase) does the source give for CC(=O)c1ccccc1NC(=O)c1ccc(OCCCCC[n+]2ccccc2)cc1 here?
A: Its Ki is 81 nM.

Q: And the Ki (Cholinesterase)?
A: Its Ki is 93 nM.

Q: And the IC50 (Beta-secretase 1)?
A: The IC50 was 310 nM.

Q: CC(=O)c1ccccc1NC(=O)c1ccc(OCCCCCC[n+]2ccccc2)cc1 was tested. Which Ki (Acetylcholinesterase) did it give?
A: Its Ki is 47 nM.

Q: And the Ki (Cholinesterase)?
A: Its Ki is 66 nM.
